System: LMNA aberrant splicing (MutLMNA-luc cell line)
Test: Luciferase assay for repression of LMNA aberrant splicing in stable 293 MutLMNA-luc cell line (293FLP LMNA LUC cells #8)
Type: cell-based
Conditions: 48 hours, compared to control untreated MutLMNA-luc cell line, read-out: Increase of luciferase activity
Source text: Advantage has been taken of the luciferase system. The luciferase assay is an extremely sensitive and rapid assay. Linear results are seen over at least eight orders of magnitude of enzyme concentration. Moreover, the luciferase assay is well suited for high-throughput applications. To conduct a Mid-throughput screening (MTS) for compounds repressing LMNA aberrant splicing, we have constructed a plasmid in which exon 11, intron 11 and part of exon 12 of LMNA gene were fused with luciferase cDNA (FIG. 2). Both wild type (WtLMNA-luc)(SEQ ID NO: 1) and mutant (MutLMNA-luc)(SEQ ID NO: 2) substrate harbouring exon 11 mutation have been constructed. In these constructs we have generated a single initiation codon in exon 11 such as correct splicing will lead to luciferase expression, while aberrant splicing will skip the initiation codon and thereby prevent luciferase expression. After transfection in HeLa cells, Luciferase assays (FIG. 2B) and RT-PCR (FIG. 2C) indicate that WtLMNA-luc produces predominantly wild type splicing and large amount of luciferase activity, whereas MutLMNA-luc recapitulate the aberrant splicing profile with reduced luciferase expression (FIGS. 2 B and C, compare Wt and Mut). In order to use this system in MTS, we have generated a stable 293 cell lines containing a single integrated copy of luciferase reporter containing LMNA mutation (MutLMNA-luc cell line) using the flp system from INVITROGEN. This system allows us to perform a MTS for compounds able to enhance luciferase activity.
LMNA sequences (1278 bp of exon 11, intron 11 and 46 bp of […]) were PCR-amplified from either control or patient's cells genomic DNA with specific primer PCR fragments were purified with Concert Rapid PCR purification system (Invitrogen) and subcloned at the BamHI and EcoRI restriction sites of the pSppβm3 S1 plasmid containing the βGlobin cassette (Labourier et al., 1999—Recognition of exonic splicing enhancer sequences by the Drosophila splicing repressor RSF1. Nucleic Acids Res. 27, 2377-2386) to give the βGlo3S1LMNAwt and βGlo3S1LMNAmut constructs. The chimeric (3Glo-LMNA sequences were then inserted into the pcDNA3.1D/V5-His-TOPO vector (Invitrogen) to be used in transfection and in vitro splicing experiments. A single initiation codon ATG was kept in exon 11 of LMNA and LMNA sequences described above were fused at their 3′ end to Fyrefly luciferase cDNA (LMNAlucWT) in order that removal of intron 11 generates a transcript that encode a fusion protein harbouring luciferase activity, whereas usage of the cryptic splice site of mutated exon 11 (LMNAlucMut) will remove the initiation codon preventing luciferase expression. Both sequences were cloned in pcDNA3 Flp-In vector (Invitrogen).
A stable 293 cell line containing a single copy of LMNAlucMut minigene was obtained using the Flp-In system from (Invitrogen) according to manufacture procedure. Several clones were obtained and only one clone was used to screen the whole chemical library (293FLP LMNA LUC cells #8).
In a 96 Well Plate sterile, V-shape one put […] of drug compounds at 50 mM and then add 49.5 μl of 10% DMSO.
One pipets […] of drug at 500 μM and adds 200 μL of DMEM+Hygromycin B. At this stage the concentration of drug compound is 10 μM. One shares out 100 μl in a 96 Well Microplate sterile, flat bottom (further called luciferase plate) and 50 μl in other one (further called toxicity plate).
One washes 293FLP LMNA LUC cells once with D-PBS then adds 1 ml trypsin EDTA. Incubation at 37° C. for 2-3 minutes is proceeded. Then one adds 9 ml DMEM (with 10% FCS, P/S).
Cell concentration is brought at 10^5 cells per ml with DMEM+Hygromycin B to have 10^4 cells per 100 μl.
100 μl of suspension cells is added (at 10^4 cells per 100 μl) so final concentration of compounds is […].
Medium of the wells is gently removed then washed once by adding slowly 150 μl of D-PBS 1×. D-PBS is removed. 40 μl of PLB 1× is added and incubated at RT for 30 minutes. […]

| Compound | fold induction at 5 µM |
| --- | --- |
| O=C(O)c1ccnc(Nc2ccc3ccccc3n2)c1 [Compound 2, 2-(Quinolin-2-ylamino)-isonicotinic acid] | 3.77 |
| Cc1ccnc(Nc2ccc3ccccc3n2)c1 [Compound 3, (4-Methyl-pyridin-2-yl)-quinolin-2-yl-amine] | 4.54 |
| c1ccc(Nc2ccc3ccccc3n2)nc1 [Compound 4, Pyridin-2-yl-quinolin-2-yl-amine] | 4.43 |
| O=C(O)c1ccnc(Nc2ccc3cccc(Cl)c3n2)c1 [Compound 5, 2-(8-Chloro-quinolin-2-ylamino)-isonicotinic acid] | 2.02 |
| N#Cc1ccc(Nc2ccc3ccccc3n2)nc1 [Compound 7, 6-(Quinolin-2-ylamino)-nicotinonitrile] | 3.33 |
| FC(F)(F)Oc1ccc(Nc2ccc3ccccc3n2)cc1 [Compound 8, Quinolin-2-yl-(4-trifluoromethoxy-phenyl)-amine] | 3.35 |
| c1ccc(Nc2cnc3ccccc3c2)nc1 [Compound 9, Pyridin-2-yl-quinolin-3-yl-amine] | 2.47 |
| COc1cccnc1Nc1cnc2ccccc2c1 [Compound 10, (3-Methoxy-pyridin-2-yl)-quinolin-3-yl-amine] | 2.01 |
| Cc1ccc(Nc2cnc3ccccc3c2)nc1 [Compound 13, (5-Methyl-pyridin-2-yl)-quinolin-3-yl-amine] | 3.46 |
| FC(F)(F)c1ccc(Nc2ccc3ncccc3c2)nc1 [Compound 15, Quinolin-6-yl-(5-trifluoromethyl-pyridin-2-yl)-amine] | 2.17 |
| Cc1cccc(Nc2ccc3ncccc3c2)n1 [Compound 16, (6-Methyl-pyridin-2-yl)-quinolin-6-yl-amine] | 4.56 |
| Cc1cccc(Nc2ccc3ccccc3n2)n1 [Compound 17, N-(6-methylpyridin-2-yl)quinolin-2-amine] | 3.66 |
| Cc1cccc(Nc2ccc3cccc(Cl)c3n2)n1 [Compound 18, 8-chloro-N-(6-methylpyridin-2-yl)quinolin-2-amine] | 2.85 |
| Cc1ccnc(Nc2ccc3cc(Cl)ccc3n2)c1 [Compound 25, 6-chloro-N-(4-methylpyridin-2-yl)quinolin-2-amine] | 3.49 |
| Cc1cccc(Nc2ccc3cc(Cl)ccc3n2)n1 [Compound 26, 6-chloro-N-(6-methylpyridin-2-yl)quinolin-2-amine] | 6.2 |
| O=[N+]([O-])c1cccnc1Nc1ccc2ccccc2n1 [Compound 28, N-(3-nitropyridin-2-yl)quinolin-2-amine] | 2.99 |
| Cc1cccnc1Nc1ccc2ccccc2n1 [Compound 31, N-(3-methylpyridin-2-yl)quinolin-2-amine] | 5.07 |
| Cc1ccc(Nc2ccc3ccccc3n2)nc1 [Compound 32, N-(5-methylpyridin-2-yl)quinolin-2-amine] | 2.96 |
| N#Cc1ccnc(Nc2ccc3ccccc3n2)c1 [Compound 33, 2-(quinolin-2-ylamino)isonicotinonitrile] | 2.14 |
| FC(F)(F)c1ccc(Nc2ccc3ccccc3n2)nc1 [Compound 34, N-(5-(trifluoromethyl)pyridin-2-yl)quinolin-2-amine] | 4.18 |
| Cc1cccnc1Nc1ccc2cccc(Cl)c2n1 [Compound 35, 8-chloro-N-(3-methylpyridin-2-yl)quinolin-2-amine] | 2.74 |
| Cc1ccc(Nc2ccc3cccc(Cl)c3n2)nc1 [Compound 36, 8-chloro-N-(5-methylpyridin-2-yl)quinolin-2-amine] | 3.06 |
| COc1cccnc1Nc1ccc2ccccc2n1 [Compound 38, N-(3-methoxypyridin-2-yl)quinolin-2-amine] | 5.81 |

| Compound | fold induction at 5 µM |
| --- | --- |
| O=[N+]([O-])c1ccc(Nc2ccc3ccccc3n2)nc1 [Compound 39, N-(5-nitropyridin-2-yl)quinolin-2-amine] | 4.29 |
| Fc1ccc(Nc2ccc3ccccc3n2)nc1 [Compound 41, N-(5-fluoropyridin-2-yl)quinolin-2-amine] | 3.32 |
| FC(F)(F)c1cccc(Nc2ccc3ccccc3n2)n1 [Compound 42, N-(6-(trifluoromethyl)pyridin-2-yl)quinolin-2-amine] | 3.87 |
| COC(=O)c1ccc(Nc2ccc3ccccc3n2)nc1 [Compound 59, methyl 6-(quinolin-2-ylamino)nicotinate] | 2.49 |
| COC(=O)c1ccc(Nc2nc3ccccc3cc2C)nc1 [Compound 61, methyl 6-[(3-methylquinolin-2-yl)amino]pyridine-3-carboxylate] | 2.04 |
| FC(F)(F)Oc1cccc(Nc2ccc3ccccc3n2)c1 [Compound 83, N-[3-(trifluoromethoxy)phenyl]quinolin-2-amine] | 2.74 |
| c1ccc(Oc2ccc(Nc3ccc4ccccc4n3)cc2)cc1 [Compound 102, N-(4-phenoxyphenyl)quinolin-2-amine] | 2.06 |
| Cc1cccc(Nc2cnc3ccccc3c2)n1 [Compound 105, N-(6-methylpyridin-2-yl)quinolin-3-amine] | 3.25 |
| Cc1ccc(Nc2ccc3ncccc3c2)nc1 [Compound 107, N-(5-methylpyridin-2-yl)quinolin-6-amine] | 2.2 |
| COc1cccnc1Nc1ccc2ncccc2c1 [Compound 108, N-(3-methoxypyridin-2-yl)quinolin-6-amine] | 4.57 |
| c1ccc2nc(Nc3cnccn3)ccc2c1 [Compound 113, N-(pyrazin-2-yl)quinolin-2-amine] | 2.28 |
| c1ccc2nc(Nc3ccncc3)ccc2c1 [Compound 120, N-(pyridin-4-yl)quinolin-2-amine] | 2.38 |
| COc1ccc(Nc2cnc3ccccc3c2)cc1 [Compound 123, N-(4-methoxyphenyl)quinolin-3-amine] | 2.94 |
| Cc1cc(OC(F)(F)F)ccc1Nc1cnc2ccccc2n1 [Compound 125, N-[2-methyl-4-(trifluoromethoxy)phenyl]quinoxalin-2-amine] | 2.59 |
| c1cnc(Nc2ccc3ccccc3n2)nc1 [Compound 128, N-(pyrimidin-2-yl)quinolin-2-amine] | 3.08 |
| c1ccc(Nc2cnc3ccccc3n2)nc1 [Compound 135, N-(pyridin-2-yl)quinoxalin-2-amine] | 4.58 |
| N#Cc1ccc(Nc2cnc3ccccc3n2)nc1 [Compound 137, 6-(quinoxalin-2-ylamino)pyridine-3-carbonitrile] | 4.64 |
| Cc1cccc(Nc2cnc3ccccc3n2)n1 [Compound 138, N-(6-methylpyridin-2-yl)quinoxalin-2-amine] | 8.22 |
| c1cnc(Nc2cnc3ccccc3n2)nc1 [Compound 142, N-(pyrimidin-2-yl)quinoxalin-2-amine] | 4.47 |
| COc1ccnc2cc(Nc3ccccn3)ccc12 [Compound 145, 4-methoxy-N-(pyridin-2-yl)quinolin-7-amine] | 3.87 |
| COc1ccnc2cc(Nc3cc(C)ccn3)ccc12 [Compound 146, 4-methoxy-N-(4-methylpyridin-2-yl)quinolin-7-amine] | 4.18 |
| Cc1ccnc(Nc2ccc3c(N(C)C)ccnc3c2)c1 [Compound 147, 4-N,4-N-dimethyl-7-N-(4-methylpyridin-2-yl)quinoline-4,7-diamine] | 2.94 |
